Source: patent US20160168140A1, “HETEROCYCLIC COMPOUNDS AS ANTIBIOTIC POTENTIATORS” (priority 2014, published 2016)
Read-outs that look alike come from different tables or passages of the source. Each block holds one compound with its values, some of them ahead of it.

Key:
Type in all cases: cell-based
[1] = system: Acinetobacter baumannii (Ab23); assay: MIC shift assay of antibiotics (broth microdilution); settings: for Colistin MIC Shift: A. baumannii (MDR Ab), compd. concentration 4.0 μM, colistin MIC 0.5-1.0 μg/mL; for Colistin & Cmpd MIC shift / Colistin MIC with compound: compound at 10 μM; for colistin MIC shift, Ab23 at (compd concentration): fold shift of colistin MIC, nc = no changeover or no shift
In short: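 Following a modified Wiegand broth microdilution protocol, colistin serial dilutions with or without test compound were set up in round-bottom 96-well plates and inoculated with A. baumannii cells to a starting OD600 of 0.005. Plates were shaken at 37° C. for 18 to 20 h and read at OD600. The fold shift was calculated from colistin MIC alone versus colistin MIC with test compound, with growth and medium-only blank controls.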

E. coli = assay: as above; settings: for Colistin MIC Shift: E. coli (SCR1), compd. concentration 4.0 μM, colistin MIC 0.5-1.0 μg/mL; for MIC, agent alone / Colistin & Cmpd MIC shift / Colistin MIC with compound: Escherichia coli ATCC 25922 (MMX 102), QC, Colistin-S; for Colistin & Cmpd MIC shift / Colistin MIC with compound: compound at 10 μM
Description: (§1) Minimum inhibitory concentration (MIC) shift assays were performed to determine if the test compounds could alter the MIC of existing antibacterial drugs (e.g., ciprofloxacin and colistin) for E. coli, Acinetobacter baumannii, Klebsiella pneumoniae, Pseudomonas aeruginosa, and Enterobacter cloacae. The MIC shift assay is based on the standard broth microdilution MIC determination protocol of Wiegand et al, Nat Protoc. 3(2):163-75 (2008), with slight modifications that allow for the screening of up to seven test compounds in a single plate.
(§2) On the day before an assay, bacteria were grown overnight in cation-adjusted Mueller Hinton broth (CAMHB; Teknova, Hollister, Calif.) at 37° C. in an orbital shaker and sub-cultured at a 1:200 dilution the following morning. The cells were grown to OD600=0.5 to 0.8 and then diluted to OD600=0.01. From a serial dilution of each antibiotic at (50 μL of 2× concentrated stock solutions) several concentrations were added to the wells of a sterile, transparent round-bottom 96-well plate (Phenix Research Products, Candler, N.C.), and diluted cells (50 μL) were added to the plates for a starting OD600 of 0.005. Then, a test compound (2.5 μL) was added to each well to give a final concentration of 4 or 10 μM. A row of wells lacking test compound but containing the antibiotic was used to determine the MIC of that antibiotic alone. A column of wells lacking both antibiotic and test compound served as a growth control, and an additional column containing only CAMHB was included as a sterile blank control.
(§3) The plates were incubated for 18 to 20 h at 37° C. in an orbital shaker, and the cell density (OD600) was determined the following day in a microplate reader (PolarStar Optima, BMG Labtech). The MIC shift was determined by comparing the MIC of the antibiotic alone to the MIC of the antibiotic plus test compound.

Klebsiella pneumoniae = assay: as above; settings: for Colistin & Cmpd MIC shift / Colistin MIC with compound: compound at 10 μM
Description: as §1, §2, §3

Pseudomonas aeruginosa = assay: as above; settings: for Colistin & Cmpd MIC shift / Colistin MIC with compound: compound at 10 μM
Description: as §1, §2, §3

Serratia marcescens = assay: Colistin MIC / MIC shift with compound at 10 μM (isolate panel, Table 19); settings: Serratia marcescens 6147, Colistin-R; for Colistin & Cmpd MIC shift / Colistin MIC with compound: compound at 10 μM
Providencia stuartii = assay: as above; settings: Providencia stuartii 6644, Colistin-R; for Colistin & Cmpd MIC shift / Colistin MIC with compound: compound at 10 μM
Proteus vulgaris = assay: as above; settings: Proteus vulgaris 6240, Colistin-R; for Colistin & Cmpd MIC shift / Colistin MIC with compound: compound at 10 μM
Burkholderia cepacia = assay: as above; settings: Burkholderia cepacia 547, Colistin-R; for Colistin & Cmpd MIC shift / Colistin MIC with compound: compound at 10 μM
Staphylococcus aureus = assay: as above; settings: for Colistin & Cmpd MIC shift / Colistin MIC with compound: compound at 10 μM
[2] = Acinetobacter baumannii ATCC 19606 (MMX 1630), Colistin-S
[3] = Acinetobacter baumannii Ab23, Colistin-R
[4] = Klebsiella pneumoniae 2237, Colistin-R
[5] = Klebsiella pneumoniae ATCC 13883 (MMX 214), Colistin-S
[6] = Pseudomonas aeruginosa 1582, Colistin-I
[7] = Pseudomonas aeruginosa 6977, Colistin-R
[8] = Pseudomonas aeruginosa ATCC 27853 (MMX 103), QC, Colistin-S
[9] = Staphylococcus aureus ATCC 43300 (MMX 5999), MRSA

Compound: Clc1ccc2[nH]cc(-c3ccc(Cl)c(Cl)c3)c2c1 [compound 429]
Colistin MIC Shift [1]: 2x
MIC, agent alone [1, 2]: > 32 µg/mL
Colistin & Cmpd MIC shift [1, 2]: 8
Colistin MIC with compound [1, 2]: 0.03 µg/mL
MIC, agent alone [1, 3]: > 32 µg/mL
Colistin & Cmpd MIC shift [1, 3]: 2133
Colistin MIC with compound [1, 3]: 0.03 µg/mL
MIC Shift of Ciprofloxacin ([1]; Compd. No. 429 concentration 8 μM, antibiotic Ciprofloxacin, A. baumannii (Ab23)): ≧32x
MIC Shift of Levofloxacin ([1]; Compd. No. 429 concentration 8 μM, antibiotic Levofloxacin, A. baumannii (Ab23)): ≧64x
MIC Shift of Meropenem ([1]; Compd. No. 429 concentration 8 μM, antibiotic Meropenem, A. baumannii (Ab23)): ≧16x
MIC Shift of Tobramycin ([1]; Compd. No. 429 concentration 8 μM, antibiotic Tobramycin, A. baumannii (Ab23)): ≧16x
colistin MIC shift, Ab23 at (compd concentration) ([1]; compound concentration 1 μM): 4x (1 μM);
colistin MIC shift, Ab23 at (compd concentration) ([1]; compound concentration 2 μM): ≧16x (2μM)
Colistin MIC Shift (E. coli): 4x
MIC, agent alone (E. coli): > 32 µg/mL
Colistin & Cmpd MIC shift (E. coli): 8
Colistin MIC with compound (E. coli): 0.015 µg/mL
MIC, agent alone (Klebsiella pneumoniae; [4]): > 32 µg/mL
Colistin & Cmpd MIC shift (Klebsiella pneumoniae; [4]): 128
Colistin MIC with compound (Klebsiella pneumoniae; [4]): 0.25 µg/mL
MIC, agent alone (Klebsiella pneumoniae; [5]): > 32 µg/mL
Colistin & Cmpd MIC shift (Klebsiella pneumoniae; [5]): 4
Colistin MIC with compound (Klebsiella pneumoniae; [5]): 0.03 µg/mL
MIC, agent alone (Pseudomonas aeruginosa; [6]): > 32 µg/mL
Colistin & Cmpd MIC shift (Pseudomonas aeruginosa; [6]): 16
Colistin MIC with compound (Pseudomonas aeruginosa; [6]): 0.25 µg/mL
MIC, agent alone (Pseudomonas aeruginosa; [7]): > 32 µg/mL
Colistin & Cmpd MIC shift (Pseudomonas aeruginosa; [7]): 64
Colistin MIC with compound (Pseudomonas aeruginosa; [7]): 1 µg/mL
MIC, agent alone (Pseudomonas aeruginosa; [8]): > 32 µg/mL
Colistin & Cmpd MIC shift (Pseudomonas aeruginosa; [8]): 2
Colistin MIC with compound (Pseudomonas aeruginosa; [8]): 0.12 µg/mL
MIC, agent alone (Serratia marcescens): > 32 µg/mL
Colistin & Cmpd MIC shift (Serratia marcescens): 256
Colistin MIC with compound (Serratia marcescens): 0.25 µg/mL
MIC, agent alone (Providencia stuartii): > 32 µg/mL
Colistin & Cmpd MIC shift (Providencia stuartii): 4
Colistin MIC with compound (Providencia stuartii): 16 µg/mL
MIC, agent alone (Proteus vulgaris): > 32 µg/mL
Colistin & Cmpd MIC shift (Proteus vulgaris): 1067
Colistin MIC with compound (Proteus vulgaris): 0.06 µg/mL
MIC, agent alone (Burkholderia cepacia): > 32 µg/mL
Colistin & Cmpd MIC shift (Burkholderia cepacia): 4
Colistin MIC with compound (Burkholderia cepacia): > 16 µg/mL
MIC, agent alone (Staphylococcus aureus): 2 µg/mL
MIC, agent alone (Staphylococcus aureus; [9]): 2 µg/mL
Colistin & Cmpd MIC shift (Staphylococcus aureus; [9]): 4267
Colistin MIC with compound (Staphylococcus aureus; [9]): ≤ 0.015 µg/mL
Colistin & Cmpd MIC shift (Staphylococcus aureus): 4267
Colistin MIC with compound (Staphylococcus aureus): ≤ 0.015 µg/mL

Colistin MIC Shift [1]: 8x
MIC, agent alone [1, 2]: 16 µg/mL
Colistin & Cmpd MIC shift [1, 2]: 17
Colistin MIC with compound [1, 2]: 0.015 µg/mL
MIC, agent alone [1, 3]: 8 µg/mL
Colistin & Cmpd MIC shift [1, 3]: 4267
Colistin MIC with compound [1, 3]: 0.015 µg/mL
colistin MIC shift, Ab23 at (compd concentration) ([1]; compound concentration 2 μM): 8-16x
Colistin MIC Shift (E. coli): 16x
MIC, agent alone (E. coli): > 32 µg/mL
Colistin & Cmpd MIC shift (E. coli): 8
Colistin MIC with compound (E. coli): 0.015 µg/mL
MIC, agent alone (Klebsiella pneumoniae; [4]): > 32 µg/mL
Colistin & Cmpd MIC shift (Klebsiella pneumoniae; [4]): 128
Colistin MIC with compound (Klebsiella pneumoniae; [4]): 0.25 µg/mL
MIC, agent alone (Klebsiella pneumoniae; [5]): > 32 µg/mL
Colistin & Cmpd MIC shift (Klebsiella pneumoniae; [5]): 8
Colistin MIC with compound (Klebsiella pneumoniae; [5]): 0.015 µg/mL
MIC, agent alone (Pseudomonas aeruginosa; [6]): > 32 µg/mL
Colistin & Cmpd MIC shift (Pseudomonas aeruginosa; [6]): 2
Colistin MIC with compound (Pseudomonas aeruginosa; [6]): 0.5 µg/mL
MIC, agent alone (Pseudomonas aeruginosa; [7]): > 32 µg/mL
Colistin & Cmpd MIC shift (Pseudomonas aeruginosa; [7]): 64
Colistin MIC with compound (Pseudomonas aeruginosa; [7]): 1 µg/mL
MIC, agent alone (Pseudomonas aeruginosa; [8]): > 32 µg/mL
Colistin & Cmpd MIC shift (Pseudomonas aeruginosa; [8]): 4
Colistin MIC with compound (Pseudomonas aeruginosa; [8]): 0.06 µg/mL
MIC, agent alone (Serratia marcescens): > 32 µg/mL
Colistin & Cmpd MIC shift (Serratia marcescens): 256
Colistin MIC with compound (Serratia marcescens): 0.25 µg/mL
MIC, agent alone (Providencia stuartii): > 32 µg/mL
Colistin & Cmpd MIC shift (Providencia stuartii): 4
Colistin MIC with compound (Providencia stuartii): > 16 µg/mL
MIC, agent alone (Proteus vulgaris): > 32 µg/mL
Colistin & Cmpd MIC shift (Proteus vulgaris): 4
Colistin MIC with compound (Proteus vulgaris): > 16 µg/mL
MIC, agent alone (Burkholderia cepacia): > 32 µg/mL
Colistin & Cmpd MIC shift (Burkholderia cepacia): 4
Colistin MIC with compound (Burkholderia cepacia): > 16 µg/mL
MIC, agent alone (Staphylococcus aureus): 1 µg/mL
MIC, agent alone (Staphylococcus aureus; [9]): 1 µg/mL
Colistin & Cmpd MIC shift (Staphylococcus aureus; [9]): 4267
Colistin MIC with compound (Staphylococcus aureus; [9]): ≤ 0.015 µg/mL
Colistin & Cmpd MIC shift (Staphylococcus aureus): 4267
Colistin MIC with compound (Staphylococcus aureus): ≤ 0.015 µg/mL
Compound: Cc1cccc2c(NCCCN(C)C)nc(-c3cc(-c4ccccc4)cc(C(F)(F)F)c3)nc12 [compound 343]
